# In US20060287375A1 (priority 2003, published 2006):
# Read-outs that look alike come from different tables or passages of the source.
# How the values were obtained:
# [1] = test system: Pyricularia oryzae; assay type: in vivo; details: paddy rice (Aichi Asahi), wettable powder on water surface, 1,000 g active ingredient per 10 ares; inoculated 10 days after application, examined 5 days after inoculation
# [2] = test system: Pyricularia oryzae; assay type: in vivo; details: rice seedlings (Aichi Asahi), wettable powder sprayed at 500 ppm active ingredient, 10 ml per pot; examined 5 days after inoculation
# [3] = test system: Septoria nodorum; test: Test for control effect on Septoria leaf spot of wheat; assay type: in vivo; details: wheat seedlings (Nohrin No. 61), wettable powder at 500 ppm, 10 ml per pot; examined 10 days after inoculation
# From the text: Test for Control Effect on Septoria Leaf Spot of Wheat
# In each of plastic pots of 6 cm in diameter were sown 10 wheat seeds (variety: Nohrin No. 61). They were allowed to germinate in a greenhouse. […] After air-drying, the seedlings were inoculated with pycnospores of Septoria nodorum and the pot was placed in a greenhouse. After 10 days from the inoculation, the total diseased area of all the first leaves in the pot was examined.
# [4] = test system: Pseudoperonospora cubensis; details: cucumber seedlings (sagami hanjiro), wettable powder at 500 ppm, 15 ml per pot; examined 7 days later
# Protocol: 10 cucumber seeds (variety: sagami hanjiro) were sown in each of vinyl chloride resin made pots of 9 cm×9 cm and were allowed to germinate in a greenhouse for 7 days. The resulting cucumber young seedlings which reached a cotyledon stage were used as a sample plant. […] The plant was air-dried and inoculated, by spraying, with a suspension of conidia of Pseudoperonospora cubensis. Immediately, the pot was placed in a wet house of 20° C. for 24 hours. Then, the pot was transferred into a greenhouse. 7 days later, the total diseased area of all the cotyledons in the pot was examined.
# [5] = test system: Pyricularia oryzae; assay type: in vivo; details: rice (Aichi Asahi), granule applied to seedling-raising box, 12 g active ingredient per box; inoculated 40 days after application, examined 6 days after inoculation
# [6] = test system: Erysiphe graminis; test: Test for control effect on powdery mildew of wheat; assay type: in vivo; details: wheat seedlings (Nohrin No. 61), wettable powder at 500 ppm, 10 ml per pot; inoculated 7 days after application, examined 8 days after inoculation
# From the text: Test for Control Effect on Powdery Mildew of Wheat
# In each of plasic pots of 6 cm in diameter were sown 10 wheat seeds (variety: Nohrin No. 61). They were allowed to germinate in a greenhouse. […] After 7 days from the application, the seedlings were inoculated, by spraying, with conidia of Erysiphe graminis. After 8 days from the inoculation, the total infected area of all the first leaves in the pot was examined.
SMILES,"Evaluation (preventive value, number of lesions of the upper young leaf) [1]","Evaluation (preventive value, number of lesions of the fourth leaf) [2]",Evaluation (total diseased area of all the first leaves) [3],other results
COC(=O)N1C(=S)c2ccccc2S1(=O)=O [compound 23],B (Less than 100 to 80.0 or more),,,
"O=C(OCN1C(=S)c2ccccc2S1(=O)=O)c1ccccc1 [compound 46, 2-benzoyloxymethyl-1,2-benzisothiazoline-3-thioxo-1,1-dioxide]",B (Less than 100 to 80.0 or more),B (Less than 100 to 80.0 or more),,
Cc1nnsc1C(=O)OCN1C(=S)c2ccccc2S1(=O)=O [compound 49],,B (Less than 100 to 80.0 or more),,
O=[N+]([O-])CN1C(=S)c2ccccc2S1(=O)=O [compound 20],B (Less than 100 to 80.0 or more),,,
N#CCN1C(=S)c2ccccc2S1(=O)=O [compound 19],B (Less than 100 to 80.0 or more),,,
O=C(Oc1ccc(Cl)cc1)N1C(=S)c2ccccc2S1(=O)=O [compound 10],B (Less than 100 to 80.0 or more),,B (Less than 25% of untreated plot),
N#CSCN1C(=S)c2ccccc2S1(=O)=O [compound 48],,B (Less than 100 to 80.0 or more),B (Less than 25% of untreated plot),Evaluation (total diseased area of all the cotyledons) [4]: B (Less than 25% of untreated plot)
"O=S1(=O)c2ccccc2C(=S)N1CBr [compound 44, 2-bromomethyl-1,2-benzisothiazoline-3-thioxo-1,1-dioxide]",B (Less than 100 to 80.0 or more),B (Less than 100 to 80.0 or more),B (Less than 25% of untreated plot),
O=S1(=O)c2ccccc2C(=S)N1CCl [compound 45],B (Less than 100 to 80.0 or more),A (100),,
O=C(OCCCl)N1C(=S)c2ccccc2S1(=O)=O [compound 30],,B (Less than 100 to 80.0 or more),B (Less than 25% of untreated plot),
CCCOC(=O)N1C(=S)c2ccccc2S1(=O)=O [compound 6],B (Less than 100 to 80.0 or more),A (100),B (Less than 25% of untreated plot),Evaluation (total diseased area of all the cotyledons) [4]: B (Less than 25% of untreated plot)
CC(C)COC(=O)N1C(=S)c2ccccc2S1(=O)=O [compound 9],B (Less than 100 to 80.0 or more),B (Less than 100 to 80.0 or more),B (Less than 25% of untreated plot),Evaluation (total diseased area of all the cotyledons) [4]: B (Less than 25% of untreated plot)
"CCOCN1C(=S)c2ccccc2S1(=O)=O [compound 3, 2-ethoxymethyl-1,2-benzisothiazoline-3-thioxo-1,1-dioxide]",B (Less than 100 to 80.0 or more),B (Less than 100 to 80.0 or more),,"Evaluation (preventive value, number of lesions of the upper young leaf) [5]: B (Less than 100 to 80.0 or more)"
CC(C)N1C(=S)c2ccccc2S1(=O)=O [Compound No. 11],B (Less than 100 to 80.0 or more),,,
O=[N+]([O-])CCN1C(=S)c2ccccc2S1(=O)=O [compound 39],B (Less than 100 to 80.0 or more),B (Less than 100 to 80.0 or more),B (Less than 25% of untreated plot),
CSCN1C(=S)c2ccccc2S1(=O)=O [compound 17],B (Less than 100 to 80.0 or more),,,

SMILES,"Evaluation (preventive value, number of lesions of the upper young leaf) [1]","Evaluation (preventive value, number of lesions of the fourth leaf) [2]",Evaluation (total diseased area of all the first leaves) [3],other results
CCC(=O)N1C(=S)c2ccccc2S1(=O)=O [compound 27],,B (Less than 100 to 80.0 or more),,
"CCOC(=O)N1C(=S)c2ccccc2S1(=O)=O [Compound No. 5, 2-ethoxycarbonyl-1,2-benzisothiazoline-3-thioxo-1,1-dioxide]",B (Less than 100 to 80.0 or more),B (Less than 100 to 80.0 or more),B (Less than 25% of untreated plot),"Evaluation (preventive value, number of lesions of the upper young leaf) [5]: B (Less than 100 to 80.0 or more)"
CC(=O)N1C(=S)c2ccccc2S1(=O)=O [compound 22],B (Less than 100 to 80.0 or more),,,
COCCN1C(=S)c2ccccc2S1(=O)=O [compound 53],,,,Evaluation (total diseased area of all the cotyledons) [4]: B (Less than 25% of untreated plot)
"C=CCOC1=NS(=O)(=O)c2ccccc21 [Probenazole, reference compound]",B (Less than 100 to 80.0 or more),,,"Evaluation (preventive value, number of lesions of the upper young leaf) [5]: B (Less than 100 to 80.0 or more)"
O=S1(=O)c2ccccc2C(=S)N1CC=CCl [Compound No. 50],,,B (Less than 25% of untreated plot),Evaluation (total diseased area of all the cotyledons) [4]: B (Less than 25% of untreated plot)
CCOC(=O)C(C(=O)OCC)N1C(=S)c2ccccc2S1(=O)=O [compound 42],,,,Evaluation (total diseased area of all the cotyledons) [4]: B (Less than 25% of untreated plot)
O=S1(=O)c2ccccc2C(=S)N1C1CCCC1 [compound 29],,,B (Less than 25% of untreated plot),
O=C(OCN1C(=S)c2ccccc2S1(=O)=O)c1cc(Cl)nc(Cl)c1 [compound 47],B (Less than 100 to 80.0 or more),,,"Evaluation (preventive value, number of lesions of the upper young leaf) [5]: B (Less than 100 to 80.0 or more)"
C#CCOC(=O)N1C(=S)c2ccccc2S1(=O)=O [compound 8],B (Less than 100 to 80.0 or more),B (Less than 100 to 80.0 or more),,Evaluation (total infected area of all the first leaves) [6]: B (Less than 25% of untreated plot)
"CON1C(=S)c2ccccc2S1(=O)=O [compound 43, 2-methoxy-1,2-benzisothiazoline-3-thioxo-1,1-dioxide]",B (Less than 100 to 80.0 or more),B (Less than 100 to 80.0 or more),,
CC(C)OC(=O)N1C(=S)c2ccccc2S1(=O)=O [compound 24],B (Less than 100 to 80.0 or more),,,
O=C(Oc1ccccc1)N1C(=S)c2ccccc2S1(=O)=O [compound 25],B (Less than 100 to 80.0 or more),,,
CC(C[N+](=O)[O-])N1C(=S)c2ccccc2S1(=O)=O (stereo not shown) [compound 40],B (Less than 100 to 80.0 or more),B (Less than 100 to 80.0 or more),B (Less than 25% of untreated plot),
CCCCOC(=O)N1C(=S)c2ccccc2S1(=O)=O [compound 31],B (Less than 100 to 80.0 or more),,B (Less than 25% of untreated plot),
C=CCOC(=O)N1C(=S)c2ccccc2S1(=O)=O [compound 7],B (Less than 100 to 80.0 or more),B (Less than 100 to 80.0 or more),B (Less than 25% of untreated plot),
